Experimental data taken from patent US5676937A, “Deodorant compositions comprising inhibitors of odor-producing axillary bacterial exoenzymes” (Colgate-Palmolive Company, priority 1995, dated 1997).
Where two headings read alike, the source gives them in different places.

Columns and labels:
beta-glucuronidase [1] = molecular target: T1, beta-glucuronidase (Escherichia coli, UniProt P05804); test: Semiquantitative assay of beta-glucuronidase (4-MUG to fluorescent 4-MU); assay type: biochemical, E. coli; set-up: key: + indicates enzyme inhibition; - indicates no enzyme inhibition; conditions: test inhibitor at 0.1 mM to 100 mM, 37° C., Tris pH 7, fluorescence by UV lamp
T1 construct: purchased Sigma Chemical Co
T1 sequence (P05804 whole entry): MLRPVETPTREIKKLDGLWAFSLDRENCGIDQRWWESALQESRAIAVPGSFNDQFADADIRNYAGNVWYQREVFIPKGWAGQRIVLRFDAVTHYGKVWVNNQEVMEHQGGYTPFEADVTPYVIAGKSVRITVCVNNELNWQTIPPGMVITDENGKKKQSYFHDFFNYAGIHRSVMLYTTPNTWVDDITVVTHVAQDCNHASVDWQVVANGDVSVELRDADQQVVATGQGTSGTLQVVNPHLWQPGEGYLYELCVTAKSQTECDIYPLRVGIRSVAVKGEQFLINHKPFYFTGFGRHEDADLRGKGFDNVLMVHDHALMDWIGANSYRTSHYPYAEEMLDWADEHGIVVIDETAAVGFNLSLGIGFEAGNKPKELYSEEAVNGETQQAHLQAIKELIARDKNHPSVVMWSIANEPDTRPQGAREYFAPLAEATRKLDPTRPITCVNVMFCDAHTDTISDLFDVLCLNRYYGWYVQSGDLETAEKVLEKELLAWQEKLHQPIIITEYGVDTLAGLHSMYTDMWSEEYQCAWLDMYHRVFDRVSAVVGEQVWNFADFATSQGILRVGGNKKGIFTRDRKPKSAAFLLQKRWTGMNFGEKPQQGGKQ
Method: (§1) B-glucuronidase from E. coli and aryl sulfatase from Aerobacter aerogenes, 4-methyl umbelliferyl glucuronide, 4-methylumbelliferyl sulfate, 4-methylumbelliferone, and D-saccharic acid-.tangle-solidup.-lactone were purchased from Sigma Chemical Co. Sodium hexametaphosphate (SPORIX) was obtained from International Sourcing.
(§2) Semiquantitative assays of the exoenzymes beta-G and AS were prepared. The enzyme assays measure conversion at 37° C. of the non-fluorescent substrates 4-MUG (for beta-G) and 4-MUS (for AS) to fluorescent product, 4-MU. The assay mixtures contained:
(§3) For the semiquantitative studies, fluorescence was detected by long-wave UV lamp (Black-Light Eastern Corporation Model XX 15).
(§4) The effects of inhibitors on the enzymatic reactions were assessed by substituting aqueous Solutions of test inhibitor, at 0.1 mM to 100 mM, for the water. To rule out quenching of the fluorescence reaction by the inhibitors separate tests were performed comparing the fluorescence from 4-MU at the maximum concentration expected in the enzyme reaction mixtures with either inhibitor solution or water.
(§5) Various inhibiting compounds of mammalian beta-G's and AS's, as well as related materials, were tested in the assay. The classic inhibitor of beta-G is saccharic acid-.tangle-solidup.-lactone (glucarolactone). This material was tested as well as the simple sugars, mannose, fucose and galactosamine and the polysaccharide pullulan. One of the reported inhibitors of beta-G, EDTA, is a strong chelating agent. Also tested against the enzyme were o-phenanthroline, citrate, gluconate, nitrilotriacetate and hexametaphosophate.

lipophilic diphtheroid [2] = test: Minimum inhibitory concentration, lipophilic diphtheroid; assay type: cell-based; conditions: ">" = growth at the highest concentration
Method: (§6) Minimum Inhibitory Concentration (MIC) values of several zinc complexes were measured for three organisms that occur naturally in the axilla: S. epidermidis, S. aureus and a lipophilic diphtheroid.
(§7) Simple salts of zinc are known to be bacteriostatic. An outcome of the experiments was producing a method to reduce axillary odor without destroying the natural flora of the axilla. Therefore MIC values of several zinc complexes and the antiseptic Irgasan DP 300 (positive control) were measured against several organisms that occur naturally in the underarm, including S epidermidis, S. aureus, and a lipophilic diphtheroid. The ">" signs indicate that bacterial growth occurred at the highest concentration of zinc compound. None of the zinc compounds were conspicuously inhibitory, having effective levels ranging from 0.1 to 1%.

S. epidermidis = test: Minimum inhibitory concentration, S. epidermidis; assay type: cell-based; conditions: ">" = growth at the highest concentration
Method: as §6, §7

S. aureus = test: Minimum inhibitory concentration, S. aureus; assay type: cell-based; conditions: ">" = growth at the highest concentration
Method: as §6, §7

aryl sulfatase [3] = molecular target: T2, aryl sulfatase (Klebsiella aerogenes, UniProt P20713); test: Quantitative fluorimetric assay of AS; assay type: biochemical; conditions: FIG. 4; relative initial rate vs log inhibitor concentration; 37° C.
T2 construct: purchased Sigma Chemical Co
T2 sequence (P20713 21-464): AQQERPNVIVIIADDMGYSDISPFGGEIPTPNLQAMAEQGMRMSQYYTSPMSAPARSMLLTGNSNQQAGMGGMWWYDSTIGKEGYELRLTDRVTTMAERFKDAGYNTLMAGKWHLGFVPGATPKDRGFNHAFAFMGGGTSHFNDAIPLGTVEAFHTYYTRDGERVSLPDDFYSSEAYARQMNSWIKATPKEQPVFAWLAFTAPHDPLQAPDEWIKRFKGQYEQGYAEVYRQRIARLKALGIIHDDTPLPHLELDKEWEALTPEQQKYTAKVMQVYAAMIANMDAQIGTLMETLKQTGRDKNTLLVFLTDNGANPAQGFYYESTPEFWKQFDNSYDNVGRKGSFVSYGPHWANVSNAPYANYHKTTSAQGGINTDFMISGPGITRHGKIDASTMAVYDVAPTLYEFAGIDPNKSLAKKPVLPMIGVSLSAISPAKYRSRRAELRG
Method: As in the semi-quantitative tests, the progress of the reactions was indicated by the development of fluorescent product 4-MU from the non-fluorescent substrates, 4-MUG and 4-MUS. The data was recorded as fluorescence emission intensity as a function of time. […] At each concentration, the beginning slope indicates the initial reaction rate. These rates were then expressed as a fraction of the uninhibited reaction rate and plotted against the log of the inhibitor concentration.

aryl sulfatase [4] = molecular target: T2, aryl sulfatase; assay type: biochemical; set-up: key: + indicates enzyme inhibition; - indicates no enzyme inhibition
Method: as §1, §2, §3, §4
as §5, with “One of the reported inhibitors of beta-G, EDTA, is a strong chelating agent.” left out

beta-glucuronidase [5] = molecular target: T1, beta-glucuronidase; test: Quantitative fluorimetric assay of beta-G; assay type: biochemical, E. coli; conditions: FIG. 3; for effective inhibitor concentration range for beta-G: relative initial rate vs log inhibitor concentration, 37° C.; for level at which inhibition of beta-G is provided: in words
Method: In addition to the semiquantitative assays several inhibitors of each, beta-G and AS, were assayed by quantitative fluorimetry. […] Prior to the performance of quantitative assays it was necessary to determine absorption and emission maxima of the fluorescent product 4-MU, as well as a concentration range for which the fluorescence intensity of this species varies linearly with concentration. A solution of 4-MU, 2 μg.ml, was prepared in 0.1M Tris buffer, pH 7.0. The absorption spectrum was scanned, giving a maximum at 334 nm. The emission maximum, 444 nm, was obtained by scanning the emission spectrum while irradiating at 334 nm. All quantitative fluorescence studies employed these parameters.
The levels of 4-MU generated in beta-G and AS assays fell into range 1. The conversion factor was 1 fluorescence unit=0.09 μM 4-MU.
Samples were prepared as described above. All components, except the enzyme, were warmed to 37° C. before addition of the enzyme. During the assays, reaction mixtures were maintained at 37° C. Fluorescence intensities were measured as a function of time.
As in the semi-quantitative tests, the progress of the reactions was indicated by the development of fluorescent product 4-MU from the non-fluorescent substrates, 4-MUG and 4-MUS. The data was recorded as fluorescence emission intensity as a function of time. […] Similar plots were constructed for each inhibitor. At each concentration, the beginning slope indicates the initial reaction rate. These rates were then expressed as a fraction of the uninhibited reaction rate and plotted against the log of the inhibitor concentration.

mixture of AS and betaG = test: Inhibition of odor from apocrine secretion treated with enzymes (panel odor evaluation); assay type: biochemical, E. coli; Aerobacter aerogenes; conditions: enzymes (AS + betaG) + apocrine sweat + inhibitor 40 mM; 37° C.; evaluated at 24 hr and 48 hr; panel of five
Method: (§8) Apocrine secretion fluid was collected from eleven subjects. The axillary area was shaved, washed with a 0.1% solution of Triton X-100, rinsed with water, blotted dry, then rinsed with hexane. An intradermal injection of 0.1 ml of 1:2000 adrenaline was performed to stimulate the apocrine glands. Micropipettes (10 μl) were placed directly against the skin to collect the droplets of apocrine secretion. Samples were frozen until ready for use. The samples were eluted from the capillary tubes with 0.1M Tris buffer, pH 7.0, when ready for use in the odor-generation studies. Lipophilic diphtheroid cultures isolated from human axillae were obtained.
(§9) Inhibiting compounds were then tested to determine their effect on odor production in apocrine secretion. Sterile, odorless apocrine secretion was eluted from capillaries into 1.5 ml of 0.1M Tris buffer, pH 7.0. In the first study, apocrine sweat was treated with beta-glucuronidase, (E. coli) and aryl sulfatase (Aerobacter aerogenes) at 0.01 mg/ml in Tris buffer, 0.1M, pH 7.0. The apocrine secretion was also treated with the lipophilic diphtheroid and with a mixed culture of axillary bacteria, each in sterile saline suspension.
(§10) In a second study, inhibitors of the two enzymes were included in the reaction mixtures--Zn++ as Zn-Glycinate, saccharic acid lactone and hexametaphosphate. The concentration of each inhibitor used in this study was 40 mM. […]

lipophilic diphtheroid [6] = test: Inhibition of odor from apocrine secretion treated with lipophilic diphtheroids (panel odor evaluation); assay type: cell-based; conditions: lipophilic diphtheroids + apocrine sweat + inhibitor 40 mM; 37° C.; evaluated at 24 hr and 48 hr; panel of five
Method: as §8, §9, §10

axillary odor = test: Human clinical study of axillary deodorancy; assay type: in vivo; conditions: for Mean Odor Score: four-judge average, ten-point scoring, Zn-GLY […], ACH 5.0%
Method: The negative control was water. Odor assessments were performed by four experienced professional evaluators from Hill Top Research, using a ten-point scoring system. Ninety subjects were recruited, and baseline scores were established after a twenty-four hour conditioning period. Sixty subjects with highest scores (all greater than 4) were retained for the study.
During the test the subjects were entered into a regimen of timed, supervised washes with conditioning soap bars, followed by supervised treatments with the test solutions and post-treatment odor evaluation. The evaluations were conducted at 5-hr and 24-hr intervals following treatments 2, 3 and 4 and all aspects were randomized to eliminate any biases.
Scores of the four judges were averaged for each person, for each evaluation. The axilla-to-axilla difference for each person was taken as the index of the deodorancy of the test material versus the water control.
The positive control was 5.0% aluminum chlorhydrate. […] The negative control was distilled deionized water.
The mean odor scores represent the four-judge average odor scores, post-treatment. The control values are the average baseline odor scores for the various cells.

[7] = test inhibitor at 0.1 mM to 100 mM, 4-MUS, 37° C., Tris pH 7, fluorescence by UV lamp

For `N[C@H]1C(O)O[C@H](CO)[C@H](O)[C@@H]1O` (stereo partly shown) [Galactosamine, galactosamine], the “inhibition of BETA-G” value (beta-glucuronidase [1]) was “-”.
With `O=S(=O)([O-])[O-].[Na+].[Na+]` [Sodium sulfate] the “inhibition of BETA-G” value (beta-glucuronidase [1]) was “+”.
With `[Cl-].[Cl-].[Zn+2]` [ZnCl2] the “MIC, LIPOPHILIC DIPHTHEROID” value (lipophilic diphtheroid [2]) was greater than 1000 ppm, the “MIC, STAPHYLOCOCCUS EPIDERMIS” value (S. epidermidis) was greater than 1000 ppm and the “MIC, STAPHYLOCOCCUS AUREUS” value (S. aureus) was greater than 1000 ppm.
With `[Cu+2]` [Cu++] the “inhibition of BETA-G” value (beta-glucuronidase [1]) was “+”, the “effective inhibitor concentration range for AS” value (aryl sulfatase [3]) was 0.1 to 10 µM and the “inhibition of AS” value (aryl sulfatase [4]; [7]) was “+”. For the same compound, the “effective inhibitor concentration range for beta-G” value (beta-glucuronidase [5]) was 10 to 100 µM.
For `O=P1([O-])OP(=O)([O-])OP(=O)([O-])OP(=O)([O-])OP(=O)([O-])OP(=O)([O-])O1.[Na+].[Na+].[Na+].[Na+].[Na+].[Na+]` [hexametaphosphate, Sodium hexametaphosphate], the “inhibition of BETA-G” value (beta-glucuronidase [1]) was “+”, the “effective inhibitor concentration range for AS” value (aryl sulfatase [3]) was 10-100 82 M and the odor (mixture of AS and betaG) was “Faint/moderate musky-sweaty”. The “inhibition of AS” value (aryl sulfatase [4]; [7]) was “+”.
fucose was tested, and the “inhibition of BETA-G” value (beta-glucuronidase [1]) was “-”.
In the case of `O=C(O)[C@@H](O)[C@H]1OC(=O)[C@H](O)[C@H]1O` [D-glucaro-.tangle-solidup.-lactone, D-saccharic acid-.tangle-solidup.-lactone, reference compound], the “inhibition of BETA-G” value (beta-glucuronidase [1]) was “+”, the odor (lipophilic diphtheroid [6]) was “Moderate sweaty” and the odor (mixture of AS and betaG) was “No odor to faint musky-sweaty”. For the same compound, the “effective inhibitor concentration range for beta-G” value (beta-glucuronidase [5]) was 1-10 μm.
For `O=C(O)CC(O)(CC(=O)O)C(=O)O` [Citrate], the “inhibition of BETA-G” value (beta-glucuronidase [1]) was “-”.
With `Oc1cc(Cl)ccc1Oc1ccc(Cl)cc1Cl` [Irgasan, reference compound] the “MIC, LIPOPHILIC DIPHTHEROID” value (lipophilic diphtheroid [2]) was 16 ppm, the “MIC, STAPHYLOCOCCUS EPIDERMIS” value (S. epidermidis) was less than 0.5 ppm and the “MIC, STAPHYLOCOCCUS AUREUS” value (S. aureus) was less than 0.5 ppm.
For aluminum chlorhydrate [ACH], the “% Difference (decrease in odor vs H2O axilla)” value (axillary odor; application #2, 5 hr) was 34.0%, the “Mean Odor Score” value (axillary odor; application #2, 5 hr) was 3.13 and the “% Difference (decrease in odor vs H2O axilla)” value (axillary odor; application #2, 24 hr) was 27.8%. For the same compound, the “Mean Odor Score” value (axillary odor; application #2, 24 hr) was 3.91, the “% Difference (decrease in odor vs H2O axilla)” value (axillary odor; application #3, 5 hr) was 28.8% and the “Mean Odor Score” value (axillary odor; application #3, 5 hr) was 2.95. For the same compound, the “% Difference (decrease in odor vs H2O axilla)” value (axillary odor; application #3, 24 hr) was 26.1%, the “Mean Odor Score” value (axillary odor; application #3, 24 hr) was 3.88 and the “% Difference (decrease in odor vs H2O axilla)” value (axillary odor; application #4, 5 hr) was 34.9%. For the same compound, the “Mean Odor Score” value (axillary odor; application #4, 5 hr) was 2.90, the “% Difference (decrease in odor vs H2O axilla)” value (axillary odor; application #4, 24 hr) was 29.5% and the “Mean Odor Score” value (axillary odor; application #4, 24 hr) was 3.64.
For mannose, the “inhibition of BETA-G” value (beta-glucuronidase [1]) was “-”.
In the case of pullulan, the “inhibition of BETA-G” value (beta-glucuronidase [1]) was “-”.
`[Zn+2]` [Zn++] was tested, and the “inhibition of BETA-G” value (beta-glucuronidase [1]) was “+”, the “effective inhibitor concentration range for AS” value (aryl sulfatase [3]) was 10-100 82 M and the “inhibition of AS” value (aryl sulfatase [4]; [7]) was “+”. The “effective inhibitor concentration range for beta-G” value (beta-glucuronidase [5]) was 10 to 100 µM.
For `O=C(O)CN(CCN(CC(=O)O)CC(=O)O)CC(=O)O` [EDTA, reference compound], the “inhibition of BETA-G” value (beta-glucuronidase [1]) was “+”, the “inhibition of AS” value (aryl sulfatase [4]; [7]) was “-” and the “level at which inhibition of beta-G is provided” value (beta-glucuronidase [5]) was “millimolar levels”.
With `O=P(O)(O)O` [Orthophosphate] the “inhibition of AS” value (aryl sulfatase [4]; pH 7) was “+”.
With `c1cnc2c(c1)ccc1cccnc12` [O-phenanthroline, o-phenanthroline] the “inhibition of BETA-G” value (beta-glucuronidase [1]) was “+” and the “level at which inhibition of beta-G is provided” value (beta-glucuronidase [5]) was “millimolar levels”.
